US6982082B1, “Gene therapy by cell specific targeting” (President and Fellows of Harvard College, priority 1996, dated 2006)
One block for each compound: values may come before it.

Experiments:
[1] = biological target: FKBP12 F36V (FKBP^t−) (Homo sapiens, UniProt P62942, F37V); assay: Scatchard analysis of binding of radiolabeled protein to FKBP^t−
[2] = biological target: FKBP (Homo sapiens, UniProt P62942); assay: binding to FKBP, same assay; conditions: in words
[3] = system: signaling in cells without FKBP containing the compensatory mutation; assay: signaling in cells not transfected with compensatory FKBP; format: cell-based
[4] = biological target: T1, CypA wild type (Homo sapiens, UniProt P62937); assay: direct fluorescence binding assay, wild type CypA; conditions: in words
T1 construct: made in house; host or cells: E. coli
T1 sequence (P62937 whole entry): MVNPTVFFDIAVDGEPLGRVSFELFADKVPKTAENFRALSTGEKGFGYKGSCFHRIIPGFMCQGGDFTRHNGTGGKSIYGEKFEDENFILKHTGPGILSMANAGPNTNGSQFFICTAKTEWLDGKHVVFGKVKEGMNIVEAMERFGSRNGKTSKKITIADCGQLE
Protocol: (§1) To determine CpSar11-CsA's binding characteristics, both the unmodified CypA and the modified CypA (S99T, F113G, C115M) (CypAgtm) was overexpressed in E. coli and purified according to standard techniques. The binding constants for CpSar11-CsA for each receptor was determined with a direct fluorescence binding assay according to the procedure described in Belshaw, P. J., Schoepher, J. G., Lui, K-Q., Morrison, K. L. & Schreiber, S. L., Angew Chem. Int. Ed. Engl. 34:2129–32 (1995).
(§2) Kds were determined using a direct fluorescence binding assay as previously described in Belshaw et al., supra.

[5] = biological target: T2, CypA (S99T, F113G, C115M) (CypAgtm) (Homo sapiens, UniProt P62937, C115M/F113G/S99T); assay: direct fluorescence binding assay, modified CypA
T2 construct: made in house; host or cells: E. coli
T2 sequence (P62937 whole entry S99T/F113G/C115M): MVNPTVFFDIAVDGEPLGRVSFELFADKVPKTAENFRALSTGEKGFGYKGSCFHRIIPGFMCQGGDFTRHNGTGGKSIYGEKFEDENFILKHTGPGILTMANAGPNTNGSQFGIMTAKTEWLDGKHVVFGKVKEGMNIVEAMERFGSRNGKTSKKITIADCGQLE
Protocol: as §1, §2

[6] = system: NFAT signaling in Jurkat cells, CypA wild type + NFAT-SEAP; assay: cellular NFAT-signaling assay (NFAT-SEAP reporter), Jurkat cells coexpressing wild type CypA; format: cell-based
Excerpt: (§3) FIG. 1 is a graph showing the cellular assay for calcineurin-mediated NFAT-signalling.
(§4) Since it is the composite surface of Cyp-CsA that binds to and thereby inhibits the phosphatase activity of Cn and as the modifications to both the receptor and ligand were expected to be buried in the complex, it was expected that these new receptor-ligand combinations would have the ability to inhibit calcineurin (Cn) and thus NFAT mediated gene activation. This hypothesis was confirmed by using a cellular assay in which NFAT-signaling was measured on a reporter gene, as described below.
(§5) CypA and mutants were sub-cloned from pGEX based expression vectors into pBJ5, a eukaryotic expression vector containing an N-terminal FLAG epitope tag. The signaling assay was performed as previously described in Belshaw, P. J., Spencer, D. M., Crabtree, G. R. & Schreiber, S. L., Chemistry & Biology, 3:731–8 (1996). Briefly 10^7 Jurkat cells were electroporated with NFAT-SEAP reporter plasmid (1 μg) alone or in combination with a Cyp expression vector (5 μg). After 20 hours, cells were stimulated in 96 well plates with phorbol ester (PMA)(50 ng/mL) and ionomycin (1 μM), which mimics T cell activation and receptor signaling. […] Twenty-four hours later, cells were assayed for SEAP activity. The data for each transfection are presented as percent SEAP activity relative to the signal for [CpSar11-CsA]=0.

[7] = system: NFAT signaling in Jurkat cells, CypAgtm + NFAT-SEAP; assay: cellular NFAT-signaling assay (NFAT-SEAP reporter), Jurkat cells expressing CypAgtm; format: cell-based
Excerpt: as §3, §4, §5

[8] = system: NFAT signaling in Jurkat cells, NFAT-SEAP alone (endogenous cyclophilins); assay: cellular NFAT-signaling assay, Jurkat cells transfected with NFAT-SEAP alone; format: cell-based
Protocol: as §3
as §5, with “activity.” for “activity. The data for each transfection are presented as percent SEAP activity relative to the signal for [CpSar11-CsA]=0.”

[9] = system: NFAT signaling in cells expressing CypA (S99T, F113A) (CypAat); assay: cellular NFAT-signaling assay, cells expressing CypAat; format: cell-based
Protocol: as §5
Presumably this was due to formation of endogenous Cyp-MeIle11-CsA complexes that inhibited Cn.

Sequence of FKBP12 F36V (FKBP^t−) (P62942 whole entry F37V): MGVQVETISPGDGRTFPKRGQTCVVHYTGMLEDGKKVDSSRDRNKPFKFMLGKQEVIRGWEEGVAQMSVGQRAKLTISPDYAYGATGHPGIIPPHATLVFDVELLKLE
Sequence of FKBP (P62942 whole entry): as the sequence (P62942 whole entry F37V) above, with V37F counted along it

Compound: 9-S-methoxy-FK506
Kd ([1]; Scatchard analysis): 5 nM
binding to FKBP12F36V ([1]; in words): does bind
binding to endogenous FKBP [2]: does not bind
effect on signaling [3]: no effect on signaling

affinity for wild type CypA [4]: little affinity
Kd ([5]; CypAgtm, read-out: Binding Constant Kd): 9 nM
affinity for CypAgtm ([5]; in words): high affinity
IC50 ([6]; CypA wild type + NFAT-SEAP, PMA and ionomycin stimulation, read-out: IC50 in Cellular NFAT-Signalling): > 400 nM
IC50 ([7]; CypAgtm + NFAT-SEAP, PMA and ionomycin stimulation, read-out: IC50 in Cellular NFAT-Signalling): 25 nM
Compound: C/C=C/C[C@@H](C)[C@@H](O)[C@H]1C(=O)N[C@@H](CC)C(=O)N(C)CC(=O)N(C)[C@@H](CC(C)C)C(=O)N[C@@H](C(C)C)C(=O)N(C)[C@@H](CC(C)C)C(=O)N[C@@H](C)C(=O)N[C@H](C)C(=O)N(C)[C@@H](CC(C)C)C(=O)N(C)[C@@H](CC(C)C)C(=O)N(C)[C@@H](C2CCCC2)C(=O)N1C [CpSar11-CsA, alpha-cyclopentyl, sarcosine11-CsA]
effect on reporter gene expression ([6]; concentrations up to 400 nM, cells coexpressing a wild type cyclophilin): little or no effect
inhibition of NFAT signaling ([7]; cells expressing CypAgtm): potently inhibited NFAT signaling
effect on reporter gene expression ([8]; concentrations up to 400 nM, cells expressing endogenous cyclophilins alone): little or no effect

Compound: MeIle11-CsA
inhibition of NFAT signaling ([8]; cells transfected with the NFAT reporter gene alone (data not shown)): still inhibited NFAT signaling
inhibition of NFAT signaling [9]: potently inhibited NFAT signaling
